From PubChem BioAssay (NCI)
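Compound exposure: 48 hours, 5 concentrations, 96-well plates. GI50: concentration for 50% inhibition of growth. TGI denotes the concentration required for complete inhibition of growth.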

Key:
Assay in all cases: NCI anticancer screen, dose series, 48 h
[1] = test system: 786-0 renal
[2] = test system: A498 renal
[3] = test system: A549 NSCLC
[4] = test system: ACHN renal
[5] = test system: BT-549 breast
[6] = test system: CAKI-1 renal
[7] = test system: CCRF-CEM leukemia
[8] = test system: COLO 205 colon
[9] = test system: DU-145 prostate
[10] = test system: EKVX NSCLC
[11] = test system: HCC-2998 colon
[12] = test system: HCT-116 colon
[13] = test system: HCT-15 colon
[14] = test system: HL-60(TB) leukemia
[15] = test system: HOP-62 NSCLC
[16] = test system: HOP-92 NSCLC
[17] = test system: HS 578T breast
[18] = test system: HT29 colon
[19] = test system: IGROV1 ovarian
[20] = test system: K-562 leukemia
[21] = test system: KM12 colon
[22] = test system: LOX IMVI melanoma
[23] = test system: M14 melanoma
[24] = test system: MALME-3M melanoma
[25] = test system: MCF7 breast
[26] = test system: MDA-MB-231 breast
[27] = test system: MDA-MB-435
[28] = test system: MOLT-4 leukemia
[29] = test system: NCI-H226 lung
[30] = test system: NCI-H460 lung
[31] = test system: NCI-H522 lung
[32] = test system: NCI/ADR-RES ovarian
[33] = test system: OVCAR-3 ovarian
[34] = test system: OVCAR-4 ovarian
[35] = test system: OVCAR-5 ovarian
[36] = test system: OVCAR-8 ovarian
[37] = test system: PC-3 prostate
[38] = test system: RPMI-8226 leukemia
[39] = test system: RXF 393 renal
[40] = test system: SF-268 CNS
[41] = test system: SF-295 CNS
[42] = test system: SF-539 CNS
[43] = test system: SK-MEL-2 melanoma
[44] = test system: SK-MEL-28 melanoma
[45] = test system: SK-MEL-5 melanoma
[46] = test system: SK-OV-3 ovarian
[47] = test system: SN12C renal
[48] = test system: SNB-19 CNS
[49] = test system: SNB-75 CNS
[50] = test system: SR leukemia
[51] = test system: SW-620 colon
[52] = test system: T-47D breast
[53] = test system: TK-10 renal
[54] = test system: U251 CNS
[55] = test system: UACC-257 melanoma
[56] = test system: UACC-62 melanoma
[57] = test system: UO-31 renal

CN1CCN(Cc2ccc(NC(=O)c3cncc(C#Cc4cnc5ccc(NCCCO)nn45)c3)cc2C(F)(F)F)CC1
GI50 [1]: 299 nM
TGI [1]: 969 nM
GI50 [2]: 314 nM
TGI [2]: 1040 nM
GI50 [3]: 202 nM
TGI [3]: 1110 nM
GI50 [4]: 483 nM
TGI [4]: 1490 nM
GI50 [5]: 343 nM
TGI [5]: 864 nM
GI50 [6]: 177 nM
TGI [6]: 1220 nM
GI50 [7]: 24.8 nM
TGI [7]: 1810 nM
GI50 [8]: 77.5 nM
TGI [8]: 188 nM
GI50 [9]: 170 nM
TGI [9]: 1060 nM
GI50 [10]: 148 nM
TGI [10]: 924 nM
GI50 [11]: 222 nM
TGI [11]: 1410 nM
GI50 [12]: 40.5 nM
TGI [12]: 221 nM
GI50 [13]: 851 nM
TGI [13]: 2990 nM
GI50 [14]: 73.3 nM
TGI [14]: 462 nM
GI50 [15]: 150 nM
TGI [15]: 999 nM
GI50 [16]: 21.1 nM
TGI [16]: 124 nM
GI50 [17]: 85.5 nM
TGI [17]: 370 nM
GI50 [18]: 108 nM
TGI [18]: 439 nM
GI50 [19]: 104 nM
TGI [19]: 399 nM
GI50 [20]: 5 nM
TGI [20]: 1840 nM
GI50 [21]: 11.2 nM
TGI [21]: 876 nM
GI50 [22]: 59.9 nM
TGI [22]: 270 nM
GI50 [23]: 96.3 nM
TGI [23]: 280 nM
GI50 [24]: 97.5 nM
TGI [24]: 438 nM
GI50 [25]: 43.7 nM
TGI [25]: 404 nM
GI50 [26]: 41.5 nM
TGI [26]: 303 nM
GI50 [27]: 71.1 nM
TGI [27]: 608 nM
GI50 [28]: 43.5 nM
TGI [28]: 1620 nM
GI50 [29]: 62 nM
TGI [29]: 311 nM
GI50 [30]: 171 nM
TGI [30]: 610 nM
GI50 [31]: 68.5 nM
TGI [31]: 247 nM
GI50 [32]: 7220 nM
TGI [32]: 18200 nM
GI50 [33]: 137 nM
TGI [33]: 795 nM
GI50 [34]: 166 nM
TGI [34]: 1330 nM
GI50 [35]: 183 nM
TGI [35]: 1990 nM
GI50 [36]: 204 nM
TGI [36]: 1030 nM
GI50 [37]: 243 nM
TGI [37]: 2820 nM
GI50 [38]: 206 nM
TGI [38]: 898 nM
GI50 [39]: 169 nM
TGI [39]: 548 nM
GI50 [40]: 126 nM
TGI [40]: 850 nM
GI50 [41]: 457 nM
TGI [41]: 1720 nM
GI50 [42]: 23.9 nM
TGI [42]: 125 nM
GI50 [43]: 79 nM
TGI [43]: 178 nM
GI50 [44]: 245 nM
TGI [44]: 1000 nM
GI50 [45]: 617 nM
TGI [45]: 1270 nM
GI50 [46]: 308 nM
TGI [46]: 1590 nM
GI50 [47]: 90.7 nM
TGI [47]: 1200 nM
GI50 [48]: 304 nM
TGI [48]: 2920 nM
GI50 [49]: 26.3 nM
TGI [49]: 137 nM
GI50 [50]: 32.2 nM
TGI [50]: 859 nM
GI50 [51]: 71.4 nM
TGI [51]: 368 nM
GI50 [52]: 414 nM
TGI [52]: 3260 nM
GI50 [53]: 384 nM
TGI [53]: 2150 nM
GI50 [54]: 290 nM
TGI [54]: 1020 nM
GI50 [55]: 318 nM
TGI [55]: 1500 nM
GI50 [56]: 210 nM
TGI [56]: 974 nM
GI50 [57]: 1320 nM
TGI [57]: 3690 nM
